Patent publication US20070117770A1, “Human ribosomal DNA (rDNA) and ribosomal RNA (rRNA) nucleic acids and uses thereof” (Cylene Pharmaceuticals, Inc., priority 2005, published 2007)
Values joined by “and” are separate entries in the source; they are usually repeats but may differ in a detail not shown here. Equal values may be shown once. Read-outs that look alike come from different tables or passages of the source.

Assays:
Test in all cases: Protein kinase inhibition assay
Assay type in all cases: biochemical
EphA2(h) = EphA2(h) (Homo sapiens, UniProt P29317); conditions: read-out: percent residual activity of EphA2(h)
Protocol: (§1) Certain compounds were tested for activity in protein kinase inhibition assays. All substrates were dissolved and diluted to working stocks in de-ionized water, apart from histone H1 (10× working stock in 20 mM MOPS pH 7.0), PDKtide (10× working stock in 50 mM Tris pH 7.0) ATF2 (which is typically stored at a 20× working stock in 50 mM Tris pH 7.5, 150 mM NaCl, 0.1 mM EGTA, 0.03% Brij-35, 50% glycerol, 1 mM benzamidine, 0.2 mM PMSF and 0.1% R-mercaptoethanol), KKLNRTLSFAEPG (SEQ ID NO:203) and RRRLSFAEPG (SEQ ID NO:204) (50 mM HEPES pH 7.4) and GGEEEEYFELVKKKK (SEQ ID NO:205) (20 mM MOPS pH 7.0). All kinases were pre-diluted to a 10× working concentration prior to addition into the assay. The composition of the dilution buffer for each kinase is detailed below.
(§2) In a final reaction volume of 25 μl, EphA2 (h) (5-10 mU) is incubated with 8 mM MOPS pH 7.0, 0.2 mM EDTA, 0.1 mg/ml poly(Glu, Tyr) 4:1, 10 mM MgAcetate and [gamma-33P-ATP] (specific activity approx. 500 cpm/pmol, concentration as required). The reaction is initiated by the addition of the MgATP mix. After incubation for 40 minutes at room temperature, the reaction is stopped by the addition of 5 μl of a 3% phosphoric acid solution. 10 μl of the reaction is then spotted onto a Filtermat A and washed three times for 5 minutes in 75 mM phosphoric acid and once in methanol prior to drying and scintillation counting.

PKCα(h) = PKCα(h) (Homo sapiens, UniProt P17252); conditions: read-out: percent residual activity of PKCα(h)
Protocol: as §1
(§3) In a final reaction volume of 25 μl, PKCα (h) (5-10 mU) is incubated with 20 mM HEPES pH 7.4, 0.03% Triton X-100, 0.1 mM, 0.1 mg/ml phosphatidylserine, 10 μg/ml diacylglycerol, 0.1 mg/ml histone H1, 10 mM MgAcetate and [gamma-33P-ATP] (specific activity approx. 500 cpm/pmol, concentration as required). The reaction is initiated by the addition of the MgATP mix. After incubation for 40 minutes at room temperature, the reaction is stopped by the addition of 5 μl of a 3% phosphoric acid solution. […]

GSK3β(h) = GSK3β(h) (Homo sapiens, UniProt P49841); conditions: read-out: percent residual activity of GSK3β(h)
Protocol: as §1
as §3, with “GSK3β” for “PKCα”, “with 8 mM MOPS pH 7.0, 0.2 mM EDTA,” for “with”, “μM […](p)EDEEE (SEQ ID NO:221) (phospho GS2 peptide),” for “mM HEPES pH 7.4, 0.03% Triton X-100, 0.1 mM, 0.1 mg/ml phosphatidylserine, 10 μg/ml diacylglycerol, 0.1 mg/ml histone H1,”

CHK1(h) = CHK1(h) (Homo sapiens, UniProt O14757); conditions: read-out: percent residual activity of CHK1(h)
Protocol: as §1
as §2, with “CHK1” for “EphA2”, “200 μM […] (SEQ ID NO:213),” for “0.1 mg/ml poly(Glu, Tyr) 4:1,”, “P30 filtermat” for “Filtermat A”

PAK4(h) = PAK4(h) (Homo sapiens, UniProt O96013); conditions: read-out: percent residual activity of PAK4(h)
Protocol: as §1
as §2, with “PAK4” for “EphA2”, “0.8” for “0.1”, “myelin basic protein,” for “poly(Glu, Tyr) 4:1,”, “P30 filtermat” for “Filtermat A”

Abl(h) = Abl(h) (Homo sapiens, UniProt P00519); conditions: for Mean (Counts - Blanks) / Activity (% Control) / Counts: 2.5 μM
Protocol: as §1
as §2, with “Abl” for “EphA2”, “50 μM EAIYAAPFAKKK (SEQ ID NO:206),” for “0.1 mg/ml poly(Glu, Tyr) 4:1,”, “P30 filtermat” for “Filtermat A”

[1] = 45 micromolar ATP, single replicates
[2] = 45 micromolar ATP, n = 2, read-out: Mean Activity (% Control)
[3] = 45 micromolar ATP, single replicates, read-out: Activity (% Control)
[4] = read-out: percent residual activity of Abl(h)

Sequence of Abl(h) (P00519 whole entry): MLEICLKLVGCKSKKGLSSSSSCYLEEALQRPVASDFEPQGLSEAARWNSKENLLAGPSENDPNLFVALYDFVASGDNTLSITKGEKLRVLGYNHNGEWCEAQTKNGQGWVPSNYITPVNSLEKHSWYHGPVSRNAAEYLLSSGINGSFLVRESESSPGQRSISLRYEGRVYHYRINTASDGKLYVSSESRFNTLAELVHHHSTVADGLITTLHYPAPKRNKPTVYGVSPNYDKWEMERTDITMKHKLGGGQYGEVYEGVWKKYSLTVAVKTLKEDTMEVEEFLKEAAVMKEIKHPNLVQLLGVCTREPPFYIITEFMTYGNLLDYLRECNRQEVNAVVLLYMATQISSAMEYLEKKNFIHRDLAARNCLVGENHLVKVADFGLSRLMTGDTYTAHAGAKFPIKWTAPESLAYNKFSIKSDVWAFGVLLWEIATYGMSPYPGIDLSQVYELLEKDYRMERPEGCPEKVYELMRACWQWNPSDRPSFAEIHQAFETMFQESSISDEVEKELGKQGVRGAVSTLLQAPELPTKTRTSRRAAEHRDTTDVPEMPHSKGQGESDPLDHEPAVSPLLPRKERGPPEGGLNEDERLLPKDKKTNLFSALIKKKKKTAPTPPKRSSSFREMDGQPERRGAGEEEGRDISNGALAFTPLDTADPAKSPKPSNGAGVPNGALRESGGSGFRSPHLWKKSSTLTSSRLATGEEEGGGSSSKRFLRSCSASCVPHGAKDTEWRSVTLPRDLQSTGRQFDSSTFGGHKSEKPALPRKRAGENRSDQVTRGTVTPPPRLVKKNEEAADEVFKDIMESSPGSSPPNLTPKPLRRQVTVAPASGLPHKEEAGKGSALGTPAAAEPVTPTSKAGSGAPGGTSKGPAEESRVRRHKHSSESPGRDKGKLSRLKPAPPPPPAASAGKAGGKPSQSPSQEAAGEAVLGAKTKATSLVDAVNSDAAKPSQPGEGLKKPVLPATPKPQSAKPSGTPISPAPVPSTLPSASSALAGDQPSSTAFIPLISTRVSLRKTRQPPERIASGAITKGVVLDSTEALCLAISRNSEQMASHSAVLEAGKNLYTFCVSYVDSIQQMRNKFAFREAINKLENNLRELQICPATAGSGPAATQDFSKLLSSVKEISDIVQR
Sequence of PAK4(h) (O96013 whole entry): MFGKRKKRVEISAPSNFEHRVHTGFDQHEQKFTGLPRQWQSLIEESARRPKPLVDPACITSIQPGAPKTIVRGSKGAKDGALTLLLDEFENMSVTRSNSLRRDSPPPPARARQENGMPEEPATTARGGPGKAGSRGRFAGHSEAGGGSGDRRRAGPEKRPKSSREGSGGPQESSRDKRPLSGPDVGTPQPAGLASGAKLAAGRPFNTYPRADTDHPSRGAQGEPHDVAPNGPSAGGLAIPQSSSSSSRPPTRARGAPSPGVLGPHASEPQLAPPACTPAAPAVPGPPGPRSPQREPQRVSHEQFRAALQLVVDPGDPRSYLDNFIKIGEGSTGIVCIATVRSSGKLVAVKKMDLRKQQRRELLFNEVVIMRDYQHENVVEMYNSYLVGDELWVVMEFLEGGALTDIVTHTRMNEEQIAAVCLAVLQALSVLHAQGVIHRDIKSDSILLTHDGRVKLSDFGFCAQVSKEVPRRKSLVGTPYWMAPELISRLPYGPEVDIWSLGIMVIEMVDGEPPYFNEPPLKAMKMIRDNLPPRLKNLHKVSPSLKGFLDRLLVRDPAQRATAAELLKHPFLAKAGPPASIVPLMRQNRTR
Sequence of GSK3β(h) (P49841 whole entry): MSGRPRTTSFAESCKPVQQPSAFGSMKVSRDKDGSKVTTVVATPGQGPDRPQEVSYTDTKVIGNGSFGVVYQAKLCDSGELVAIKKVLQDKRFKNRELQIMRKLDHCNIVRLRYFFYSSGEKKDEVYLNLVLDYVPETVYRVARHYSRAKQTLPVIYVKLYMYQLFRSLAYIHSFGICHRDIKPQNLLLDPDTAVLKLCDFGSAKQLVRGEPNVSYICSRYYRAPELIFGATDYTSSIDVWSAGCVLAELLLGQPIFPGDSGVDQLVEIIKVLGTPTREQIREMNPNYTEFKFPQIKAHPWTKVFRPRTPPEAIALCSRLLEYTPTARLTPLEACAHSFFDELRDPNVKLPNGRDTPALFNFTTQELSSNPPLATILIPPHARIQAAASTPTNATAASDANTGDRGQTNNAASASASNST
Sequence of EphA2(h) (P29317 24-976): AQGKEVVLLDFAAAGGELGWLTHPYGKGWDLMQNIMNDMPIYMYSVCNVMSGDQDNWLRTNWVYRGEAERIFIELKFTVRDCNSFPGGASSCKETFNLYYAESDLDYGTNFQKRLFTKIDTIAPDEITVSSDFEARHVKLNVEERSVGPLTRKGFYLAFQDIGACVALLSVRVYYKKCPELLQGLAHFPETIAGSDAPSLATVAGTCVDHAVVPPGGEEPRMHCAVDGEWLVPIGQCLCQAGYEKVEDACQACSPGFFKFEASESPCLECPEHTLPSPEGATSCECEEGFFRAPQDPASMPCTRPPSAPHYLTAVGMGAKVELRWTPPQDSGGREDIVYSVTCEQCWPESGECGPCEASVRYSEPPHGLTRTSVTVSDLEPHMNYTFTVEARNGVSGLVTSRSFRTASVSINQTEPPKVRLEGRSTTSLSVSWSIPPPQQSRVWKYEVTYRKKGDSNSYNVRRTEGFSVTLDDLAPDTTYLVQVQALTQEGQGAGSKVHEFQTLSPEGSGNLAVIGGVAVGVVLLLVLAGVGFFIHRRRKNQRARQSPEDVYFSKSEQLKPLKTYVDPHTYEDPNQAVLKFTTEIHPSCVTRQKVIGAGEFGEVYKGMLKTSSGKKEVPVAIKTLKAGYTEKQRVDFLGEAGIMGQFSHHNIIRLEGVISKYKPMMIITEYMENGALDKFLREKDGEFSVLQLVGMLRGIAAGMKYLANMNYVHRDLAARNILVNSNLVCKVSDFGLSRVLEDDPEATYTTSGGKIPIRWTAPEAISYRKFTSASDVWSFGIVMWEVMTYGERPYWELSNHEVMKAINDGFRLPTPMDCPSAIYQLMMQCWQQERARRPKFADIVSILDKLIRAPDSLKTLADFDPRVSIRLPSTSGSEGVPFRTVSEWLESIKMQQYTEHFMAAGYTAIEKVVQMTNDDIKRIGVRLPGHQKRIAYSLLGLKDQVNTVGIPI
Sequence of CHK1(h) (O14757 whole entry): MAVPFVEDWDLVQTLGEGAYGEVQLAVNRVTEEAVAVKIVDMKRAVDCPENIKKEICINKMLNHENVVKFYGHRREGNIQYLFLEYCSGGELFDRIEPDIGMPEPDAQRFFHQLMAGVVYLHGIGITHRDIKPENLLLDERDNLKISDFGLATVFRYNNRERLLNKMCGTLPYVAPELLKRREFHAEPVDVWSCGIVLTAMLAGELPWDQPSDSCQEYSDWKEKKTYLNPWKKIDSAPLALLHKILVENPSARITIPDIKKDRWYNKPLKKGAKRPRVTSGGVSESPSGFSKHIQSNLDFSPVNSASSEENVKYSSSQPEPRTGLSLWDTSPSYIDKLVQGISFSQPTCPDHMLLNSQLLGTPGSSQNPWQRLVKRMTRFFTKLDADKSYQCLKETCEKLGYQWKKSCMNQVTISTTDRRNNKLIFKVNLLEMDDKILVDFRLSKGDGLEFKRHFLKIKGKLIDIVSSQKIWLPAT

SMILES | remaining activity at 2.5 µM (EphA2(h)) | remaining activity at 2.5 µM (PKCα(h)) | remaining activity at 2.5 µM (GSK3β(h)) | remaining activity at 2.5 µM (CHK1(h)) | remaining activity at 2.5 µM (PAK4(h)) | Mean (Counts - Blanks) (Abl(h); 45 micromolar ATP) | Activity (% Control) (Abl(h); [1]) | Counts (Abl(h); [1]) | remaining activity at 2.5 µM (Abl(h); [2]) | remaining activity at 2.5 µM (Abl(h); [3]) | remaining activity at 2.5 µM (Abl(h); [4])
CN1CCCC1CCNC(=O)c1cn2c3c(c(N4CCC(c5cnccn5)C4)c(F)cc3c1=O)Oc1cc3ccccc3cc1-2 (stereo not shown) [Compound A-1] | 101% | 90% | 135% | 95% | 99% | 12522 | 25 % Control | 15236 and 14630 | 26% | 27% | 26%
CC(=O)N1CCN(c2ccc3c(=O)c(C(=O)NCCN4CCCC4)c4n(C)c5ccccc5n4c3n2)CC1 [Compound B-1] | 102% | 101% | 76% | 106% | 96% | 47944 | 98 % Control | 51051 and 49659 | 100% | 101% | 100%
